Literature values as cited in patent US10166194B2, “Hydrocortisone controlled release formulation” (Diurnal Limited, priority 2012, dated 2019).

C[C@]12CCC(=O)C=C1CC[C@@H]1[C@@H]2[C@@H](O)C[C@@]2(C)[C@H]1CC[C@]2(O)C(=O)CO [Hydrocortisone]
half-life: ca. 3 hours
